In patent publication EP4737445A1, “NOVEL SATURATED HETEROCYCLE-SUBSTITUTED HETEROARYL-CARBONOHYDRAZONOYL DICYANIDE COMPOUND AND USE THEREOF” (Korea Institute of Science and Technology, priority 2023, dated 2025):

Molecular target: T1, tau (Homo sapiens, UniProt P10636, P618L)
T1 construct: BiFC fluorescent-protein fragments (two complementary halves); from tissue; host or cells: brain of TauP301L-BiFC transgenic mice
Test: AT8 (pS202/T205) phospho-tau immunofluorescence of brain tissue
Assay type: in vivo
Settings: TauP301L-BiFC mice; oral 10 mg/kg, 19 weeks; vehicle = 100%
Procedure: After oral administration of Compounds 6, 16, and 20 and completion of behavioral experiments, 13.2-month-old TauP301L-BiFC mice were sacrificed to proceed with brain tissue extraction and [2] brain lysate separation and purification. • [1] First, brain tissue extraction, BiFC fluorescence imaging of brain tissue, and tau phosphorylation antibody immunofluorescence were performed through the following process. TauP301L-BiFC mice were perfused with 0.9% saline and fixed with PBS (pH 7.4) solution containing 4% paraformaldehyde. The brain was extracted and fixed in PBS containing 4% paraformaldehyde at 4°C for 48 to 72 hours. For cryoprotection, the brain was transferred to PBS containing 30% sucrose solution and stored at 4°C until it sank. For frozen sectioning, the brain was immersed in O.C.T (Tissue-TEK) and frozen, and then continuously cut using a brain tissue sectioner. Tissue sections with a thickness of 30 µm were stored in PBS containing 0.05% sodium azide at 4°C.
To measure not only tau oligomer formation but also the degree of tau phosphorylation observed in the tau pathology process, immunofluorescence staining using a tau phosphorylation antibody was performed. For brain tissue immunofluorescence image analysis, brain tissue slices (n=10 per group) were stained with AT8 (pS202/T205) antibody (1:200), and the primary antibody was detected using Alexa Fluor 633-labeled anti-mouse secondary antibody (1:500). Fluorescence images (λex=620-640 nm and λem=650-700 nm) were acquired using Axio Scan.Z1 (ZEISS).
The AT8 fluorescence imaging results of a total of two brain tissue regions (hippocampus (CA1), somatosensory cortex) were as follows: • (1) Hippocampus (CA1), vehicle = 100%, #20= 72%, p<0.01, #6= 81%, p<0.05, #16= 76%, p<0.01. • (2) Sensory cortex (SCTX), vehicle = 100%, #20= 54%, p<0.0001, #6= 63%, p<0.001, #16= 57%, p<0.0001.

T1 sequence (P10636 1-441 isoform P10636-8 P301L): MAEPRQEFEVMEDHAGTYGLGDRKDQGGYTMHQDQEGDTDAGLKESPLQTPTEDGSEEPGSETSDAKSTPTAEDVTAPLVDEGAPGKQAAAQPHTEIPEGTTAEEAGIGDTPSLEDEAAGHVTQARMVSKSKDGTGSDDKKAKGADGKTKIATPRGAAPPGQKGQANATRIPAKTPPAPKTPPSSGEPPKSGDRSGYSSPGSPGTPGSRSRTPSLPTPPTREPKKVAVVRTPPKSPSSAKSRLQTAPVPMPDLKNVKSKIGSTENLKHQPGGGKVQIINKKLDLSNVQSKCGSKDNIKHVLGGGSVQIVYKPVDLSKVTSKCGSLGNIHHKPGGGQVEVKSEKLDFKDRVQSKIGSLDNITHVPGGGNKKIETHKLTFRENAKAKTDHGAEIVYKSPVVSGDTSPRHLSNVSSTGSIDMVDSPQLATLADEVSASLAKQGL

SMILES | AT8 fluorescence, Hippocampus (CA1) | AT8 fluorescence, Sensory cortex (SCTX)
Cn1c(N2CCOCC2)nc2cc(NN=C(C#N)C#N)ccc21 [Compound 6, (1-methyl-2-morpholino-1H-benzo[d]imidazol-5-yl)carbonohydrazonoyl dicyanide] | 81% | 63%
CC1COCCN1c1nc2ccc(NN=C(C#N)C#N)cc2o1 (stereo not drawn) [Compound 16, (2-(3-methylmorpholino)benzo[d]oxazol-6-yl)carbonohydrazonoyl dicyanide] | 76% | 57%
N#CC(C#N)=NNc1ccc2nc(N3C4CCC3COC4)oc2c1 [Compound 20, (2-(3-oxa-8-azabicyclo[3.2.1]octan-8-yl)benzo[d]oxazol-6-yl)carbonohydrazonoyl dicyanide] | 72% | 54%
